Our source for the TGI and GI50 values is PubChem BioAssay (NCI).

Among the test systems are IGROV1 ovarian; MDA-MB-231 breast; COLO 205 colon; RPMI-8226 leukemia; SN12C renal; HCC-2998 colon; HL-60(TB) leukemia; KM12 colon; UO-31 renal; NCI-H460 lung.
Common to all, as to assay: DTP human tumour cell line panel, 48 h

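Where inhibition never reached the appropriate level, the endpoint shown equals the highest concentration tested. Otherwise, values were interpolated linearly from a five-concentration, 48-hour dose response in 96-well plates. Abbreviation: GI50, concentration required for 50% inhibition of growth. TGI: total growth inhibition.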

As to `NC(=O)c1ncn2c(=O)n(CCCl)nnc12`, the total growth inhibition concentration (TGI) with IGROV1 ovarian came out at 482 µM; in the experiment with MDA-MB-231 breast, 584 µM; in the experiment with COLO 205 colon, 305 µM; with RPMI-8226 leukemia, 1250 µM; in the experiment with SN12C renal it was 546 µM; with HCC-2998 colon, 366 µM. The concentration for total growth inhibition (TGI) was found to be 223 µM in the experiment with HL-60(TB) leukemia, 408 µM in the experiment with KM12 colon, 521 µM in the experiment with UO-31 renal and 221 µM in the experiment with NCI-H460 lung. Moreover, in the experiment on KM12 colon, the GI50 was more than 92.4 µM.

Take `Nc1no[n+]([O-])c1-c1nnc2c(n1)-c1ccccc1C2=O`: the GI50 in the experiment on IGROV1 ovarian is 3.02 µM; with MDA-MB-231 breast it was 2.89 µM; in the experiment with COLO 205 colon, 1.93 µM; in the experiment on RPMI-8226 leukemia it was 2.76 µM; in the experiment on SN12C renal it was 1.86 µM; with HCC-2998 colon it was 13 µM. In addition, the GI50 is 2.13 µM in the experiment with HL-60(TB) leukemia, 3.53 µM with KM12 colon, 2.25 µM in the experiment with UO-31 renal and 3.38 µM with NCI-H460 lung. Also, the total growth inhibition concentration (TGI) with IGROV1 ovarian turned out to be 11.7 µM; with MDA-MB-231 breast it was 9.4 µM; in the experiment on COLO 205 colon, 4.35 µM; with RPMI-8226 leukemia it was 7.73 µM; in the experiment with SN12C renal, 3.51 µM; in the experiment with HCC-2998 colon it was 26.8 µM. Moreover, the TGI in the experiment on HL-60(TB) leukemia worked out at 5.54 µM; in the experiment with KM12 colon it was 15.3 µM; with UO-31 renal, 6.75 µM; in the experiment with NCI-H460 lung it was 11.4 µM.

As for `CCC(=C(c1ccc(OCCN2CCCC2)cc1)c1ccc(OCCN2CCCC2)cc1)c1ccc(Cl)cc1`, the GI50 with IGROV1 ovarian is 0.582 µM; in the experiment on MDA-MB-231 breast, 0.589 µM; in the experiment with COLO 205 colon it was 0.615 µM; in the experiment on RPMI-8226 leukemia, 0.674 µM; with SN12C renal it was 0.572 µM; in the experiment on HCC-2998 colon, 0.566 µM. In addition, the GI50 was 0.606 µM in the experiment on HL-60(TB) leukemia, 0.626 µM in the experiment on KM12 colon, 0.5 µM in the experiment on UO-31 renal and 0.624 µM in the experiment with NCI-H460 lung. For the same compound, the total growth inhibition concentration (TGI) with IGROV1 ovarian came out at 1.1 µM; in the experiment on MDA-MB-231 breast, 1.11 µM; in the experiment on COLO 205 colon, 1.25 µM; in the experiment with RPMI-8226 leukemia, 1.53 µM; with SN12C renal it was 1.1 µM; in the experiment with HCC-2998 colon, 1.07 µM. Moreover, the TGI was found to be 1.27 µM with HL-60(TB) leukemia, 1.21 µM in the experiment with KM12 colon, 0.965 µM with UO-31 renal and 1.18 µM in the experiment with NCI-H460 lung.

Turning to `C1=C\CCCCN2CC[C@H]3[C@H](CCCC/C=C\CCCN4C[C@@H](CCCCC/1)C[C@@H]3C4)C2`, the GI50 was 9.27 µM with IGROV1 ovarian; 6.03 µM in the experiment on MDA-MB-231 breast; 2.25 µM in the experiment with COLO 205 colon; 2.06 µM in the experiment on RPMI-8226 leukemia; 11.6 µM in the experiment on SN12C renal; 2.58 µM in the experiment on HCC-2998 colon. Further, the GI50 in the experiment with HL-60(TB) leukemia is 2.77 µM; in the experiment with KM12 colon, 9.05 µM; in the experiment with UO-31 renal, 4.35 µM; with NCI-H460 lung, 5.58 µM. Also, the total growth inhibition concentration (TGI) amounted to 23.1 µM in the experiment on IGROV1 ovarian; 19.1 µM in the experiment on MDA-MB-231 breast; 5.75 µM with COLO 205 colon; 6.16 µM in the experiment with RPMI-8226 leukemia; 23.9 µM in the experiment on SN12C renal; 7.6 µM with HCC-2998 colon. The TGI was found to be 10.8 µM in the experiment with HL-60(TB) leukemia, 21.5 µM in the experiment with KM12 colon, 10.5 µM in the experiment with UO-31 renal and 18.1 µM in the experiment on NCI-H460 lung.

`CCC(C)C(=O)OC1CCC=C2C=CC(C)C(CCC3CC(O)CC(=O)O3)C21` (stereo unspecified): the TGI in the experiment on IGROV1 ovarian was 44.1 µM; in the experiment with MDA-MB-231 breast, more than 64.7 µM; in the experiment on COLO 205 colon, 32.4 µM; in the experiment with RPMI-8226 leukemia, more than 100 µM; with SN12C renal, more than 100 µM; in the experiment on HCC-2998 colon, more than 100 µM. Further, the total growth inhibition concentration (TGI) with HL-60(TB) leukemia, with KM12 colon, in the experiment on UO-31 renal and in the experiment on NCI-H460 lung was more than 100 µM in each case.

Consider `CCOC(=O)c1cc2c(n1Cc1cc(OC)cc(OC)c1)-c1oncc1CC2`, for which the 50% growth inhibitory concentration (GI50) in the experiment with IGROV1 ovarian is 0.226 µM; with MDA-MB-231 breast it was 1.09 µM; in the experiment on COLO 205 colon, 0.182 µM; in the experiment with RPMI-8226 leukemia, 0.354 µM; in the experiment with SN12C renal it was 0.994 µM; with HCC-2998 colon, 0.411 µM. Also, the GI50 is 0.0634 µM with HL-60(TB) leukemia, 0.0816 µM in the experiment on KM12 colon, 6.37 µM with UO-31 renal and 0.139 µM in the experiment with NCI-H460 lung. For the same compound, the concentration for total growth inhibition (TGI) is more than 100 µM in the experiment on IGROV1 ovarian; more than 95.8 µM with MDA-MB-231 breast; 0.616 µM in the experiment on COLO 205 colon; more than 35.4 µM with RPMI-8226 leukemia; more than 100 µM with SN12C renal; more than 100 µM in the experiment with HCC-2998 colon. For the same compound, the concentration for total growth inhibition (TGI) in the experiment with HL-60(TB) leukemia was 1.15 µM; in the experiment on KM12 colon it was more than 59.5 µM; in the experiment with UO-31 renal, more than 100 µM; with NCI-H460 lung it was more than 37.8 µM.

As for `CCCCC[C@H]1C/C=C2/C(=O)C(Cl)=C[C@@H]2C/C=C\CCCC(=O)O1`, the GI50 in the experiment with IGROV1 ovarian is 0.444 µM; with MDA-MB-231 breast, 0.642 µM; in the experiment with COLO 205 colon, 0.438 µM; with RPMI-8226 leukemia it was 0.171 µM; in the experiment with SN12C renal it was 0.333 µM; in the experiment with HCC-2998 colon it was 0.475 µM. In addition, the GI50 in the experiment with HL-60(TB) leukemia is 0.565 µM; with KM12 colon it was 0.518 µM; in the experiment with UO-31 renal it was 0.379 µM; in the experiment on NCI-H460 lung it was 0.629 µM. Further, the concentration for total growth inhibition (TGI) in the experiment with IGROV1 ovarian is 1.24 µM; with MDA-MB-231 breast it was 2.24 µM; in the experiment with COLO 205 colon, 0.975 µM; in the experiment with RPMI-8226 leukemia, 1.52 µM; in the experiment with SN12C renal, 0.905 µM; with HCC-2998 colon, 0.855 µM. The TGI in the experiment on HL-60(TB) leukemia is 2.72 µM; with KM12 colon, 1.33 µM; in the experiment on UO-31 renal, 0.717 µM; in the experiment on NCI-H460 lung, 1.91 µM.
